Assay results taken from publication PMC9867029, “Effect of Salts on the Conformational Dynamics of the Cytochrome P450 OleP” (Molecules, 2023).

Molecular target: T1, OleP (CYP107D1) (Streptomyces antibioticus, UniProt Q59819)
T1 sequence (Q59819 1-407): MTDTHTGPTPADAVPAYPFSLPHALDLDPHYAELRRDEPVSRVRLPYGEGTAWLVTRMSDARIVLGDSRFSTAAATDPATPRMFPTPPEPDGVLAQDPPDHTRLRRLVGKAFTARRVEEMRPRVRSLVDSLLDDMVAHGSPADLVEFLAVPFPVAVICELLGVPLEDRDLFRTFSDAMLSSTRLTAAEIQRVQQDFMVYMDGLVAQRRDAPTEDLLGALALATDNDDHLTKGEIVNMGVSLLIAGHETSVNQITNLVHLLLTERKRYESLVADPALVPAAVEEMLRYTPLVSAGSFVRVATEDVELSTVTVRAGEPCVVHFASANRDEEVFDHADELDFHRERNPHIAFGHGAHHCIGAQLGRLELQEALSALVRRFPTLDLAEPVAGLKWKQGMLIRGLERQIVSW
Assay: UV-visible Soret spectral titration (type I shift), global hyperbolic fit
Type: binding
Excerpt: UV-visible Soret spectral titration (type I shift), global hyperbolic fit on OleP (CYP107D1)

`CC[C@H]1OC(=O)[C@H](C)[C@@H](O)[C@H](C)[C@@H](O)[C@@H](C)C[C@@H](C)C(=O)[C@H](C)[C@@H](O)[C@H]1C` [6DEB] was tested, and the Kd was 3.83 ± 0.06 µM.
